Results on three compounds are retold here after ChEMBL document CHEMBL1821695, “Tetrazine-trans-cyclooctene ligation for the rapid construction of integrin αvβ₃ targeted PET tracer based on a cyclic RGD peptide” (Bioorg Med Chem Lett, 2011).

In data set [1] the test system is Mus musculus. The data set is described as follows: Biodistribution in tumor of athymic nude mouse bearing U87MG cells at 3.7 MBq, iv after 0.5 hrs by micro PET scan method. The settings on record: in vivo. The format is ADME, organism-based, Neoplasm, U-87MG ATCC.
Data set [2] relates to Mus musculus. The data set is described as follows: Biodistribution in tumor of athymic nude mouse bearing U87MG cells at 3.7 MBq, iv after 2 hrs by micro PET scan method. The class given is ADME, organism-based, Neoplasm, U-87MG ATCC. The following applies: in vivo.
Data set [3] deals with Mus musculus. The experiment in a line: Biodistribution in tumor of athymic nude mouse bearing U87MG cells after 1 hr co-injecting with 10 mg/kg of c(RGDyK) by micro PET scan method. The class given is ADME, organism-based, Neoplasm, U-87MG ATCC. On the set-up: dose 10 mg/kg. The following applies: in vivo.
Data set [4] relates to Mus musculus. The data set is described as follows: Biodistribution in abdomen of athymic nude mouse bearing U87MG cells at 3.7 MBq, iv upto 4 hrs postinjection by micro PET scan method. The class given is ADME, organism-based, U-87MG ATCC. The settings on record: in vivo.
Data set [5] concerns Mus musculus. The experiment in a line: Biodistribution in tumor of athymic nude mouse bearing U87MG cells after 4 hrs co-injecting with 10 mg/kg of c(RGDyK) by micro PET scan method. The arrangement: dose 10 mg/kg. The settings on record: in vivo. The format is ADME, organism-based, Neoplasm, U-87MG ATCC.
In data set [6] the test system is Mus musculus. The data set is described as follows: Biodistribution in tumor of athymic nude mouse bearing U87MG cells at 3.7 MBq, iv after 1 hr by micro PET scan method. The following applies: in vivo. The class given is ADME, organism-based, Neoplasm, U-87MG ATCC.
In data set [7] the test system is Mus musculus. The data set is described as follows: Biodistribution in tumor of athymic nude mouse bearing U87MG cells after 2 hrs co-injecting with 10 mg/kg of c(RGDyK) by micro PET scan method. The format is ADME, organism-based, Neoplasm, U-87MG ATCC. The arrangement: dose 10 mg/kg. The settings on record: in vivo.
The test system of data set [8] is Mus musculus. The data set is described as follows: Biodistribution in tumor of athymic nude mouse bearing U87MG cells at 3.7 MBq, iv after 4 hrs by micro PET scan method. The class given is ADME, organism-based, Neoplasm, U-87MG ATCC. The settings on record: in vivo.
Data set [9] in a line: Chemical stability of the compound in phosphate buffer saline in presence of 5% EtOH after 6 hrs by Radio-HPLC analysis. The following applies: phosphate buffered saline with 5% EtOH; read-out: Stability. The class given is physicochemical.
The subject of data set [10] is Mus musculus. The data set is described as follows: Biodistribution in tumor of athymic nude mouse bearing U87MG cells after 0.5 hrs co-injecting with 10 mg/kg of c(RGDyK) by micro PET scan method. On the set-up: dose 10 mg/kg. The format is ADME, organism-based, Neoplasm, U-87MG ATCC. The following applies: in vivo.
In data set [11] the target is Integrin alpha-V/beta-3 (Homo sapiens) (UniProt P05106+P06756). The data set is described as follows: Displacement of [125]I-echistatin from alphaVbeta3 integrin expressed in human U87MG cells by competitive binding assay. The class given is cell-based. The following applies: U-87MG ATCC.

Turning to `N=C(N)NCCC[C@H]1NC(=O)CNC(=O)[C@@H](CC(=O)O)NC(=O)[C@H](Cc2ccc(O)cc2)NC(=O)[C@@H](CCCCNC(=O)CCCC(=O)Nc2ccc(C3=NN=C(c4ccccn4)[C@@H]4CCC[C@@H](OCC[18F])CC[C@@H]34)nc2)NC1=O`, the Drug uptake is on record as 4.6 % ID/g in the data set with Mus musculus [1]; 4.2 % ID/g in the data set with Mus musculus [2]; 1 % ID/g in the data set on Mus musculus [3]; “Active” in the data set on Mus musculus [4]; 0.4 % ID/g with Mus musculus [5]; 4.4 % ID/g with Mus musculus [6]. Moreover, the figures for the Drug uptake with Mus musculus [7], with Mus musculus [8] and in the data set on Mus musculus [10] were 0.6 % ID/g, 2.7 % ID/g and 1.4 % ID/g, respectively. The remaining at 6 h in data set [9] was greater than 95%.

As to `N=C(N)NCCC[C@H]1NC(=O)CNC(=O)[C@@H](CC(=O)O)NC(=O)[C@H](Cc2ccc(O)cc2)NC(=O)[C@@H](CCCCN)NC1=O`, in data set [11], the Activity entry is “Dose-dependent effect”.

As to `N=C(N)NCCC[C@H]1NC(=O)CNC(=O)[C@@H](CC(=O)O)NC(=O)[C@H](Cc2ccc(O)cc2)NC(=O)[C@@H](CCCCNC(=O)CCCC(=O)Nc2ccc(C3=NN=C(c4ccccn4)[C@@H]4CCC[C@@H](OCCF)CC[C@@H]34)nc2)NC1=O`, in data set [11], the Activity entry is “Dose-dependent effect”.
